Read-outs that look alike come from different tables or passages of the source.

Here are results for two compounds from patent publication US20090221540A1, “Method of Treating An Acute Vascular Disorder” (PANTARHEI BIOSCIENCE B.V., priority 2006, published 2009).

Series [1] has as its system coronary and cerebral arteries. The settings on record: in vitro; cited from earlier work.
Series [2] concerns erectile dysfunction primarily due to vascular causes. The series is described as follows: clinical trial of on demand oral estetrol versus placebo in erectile dysfunction (SFQ). Type of series: in vivo, human. The settings on record: 100 mg per dose. The method, then:
As a novel method single dose, on demand oral estetrol administration is tested to treat erectile dysfunction and compared to placebo treatment. A clinical trial is performed in 20 subjects, experiencing erectile dysfunction that is primarily due to vascular causes and in whom intracavernous injection of either papaverine or phentolamine has been previously proven successful in restoring erectile function. Ten subjects receive estetrol medication (100 mg per dose) and 10 subjects receive placebo medication in this outclinic study. Subjects with mild, moderate as well as severe symptoms of erectile dysfunction are instructed on the use of investigational drug medication, which is preferentially being taken 15 minutes to 2 hours before sexual activity. At the start of the trial, subjects are asked to fill out a baseline Sexual Functioning Questionnaire (SFQ). The SFQ is used as the primary endpoint, since this is a self-administered questionnaire and designed to measure changes in sexual function (Smith et al., 2002, British J. Psych., 181:49-55). It asks detailed questions about libido, physical arousal (erection), masturbation, orgasm and ejaculation. It is designed such that higher scores indicate greater dysfunction. Typically total normal controls scores are less than 14 and sexually disfunctioning patients show total scores of more than 18 (Smith et al., 2002, British J. Psych., 181:49-55). […] At the end of the study period at 4 weeks, subject's responses to SFQ survey questions are compared to SFQ responses at baseline. For separate SFQ variables, a comparison is made of those subjects who initially show a bad baseline score. The results are then pooled and expressed as the percentage of subjects with improvement.

The next series concerns migraine. The series is described as follows: double-blind, placebo-controlled, multiple attack clinical study of on demand oral estetrol in migraine. In kind it is in vivo, human. The method, then: A double-blind, placebo-controlled, multiple attack clinical study is conducted with single dose, on demand oral estetrol administration in adult volunteers (20 females and 20 males) each of whom is seeking migraine relief. Participating subjects show at least a 1-year history of migraine as is defined by International Headache Society criteria (IHS; Headache Classification Committee of the International Headache Society, 1988, Cephalalgia 8 (Suppl. 7):19-28) and report regularly occurring migraines with episodes of pain, photophobia and nausea. Each participant receives blinded medication in two differently labeled bottles, filled with tablets. One bottle comprises tablets that contain 100 mg estetrol, whilst the other bottle contains identical placebo tablets. Participants are allowed to choose from which bottle to orally ingest a tablet at the moment the first symptoms of a migraine attack become apparent. Patients are asked to keep daily records stating the number of migraine attacks, severity of attacks, duration of attacks and use of medication (bottle 1 or bottle 2) for the entire study period of 2 months.

Series [3] can be described thus: safety and tolerability of single oral doses of estetrol in healthy postmenopausal volunteers. Type of series: in vivo, human. The method, then:
(§1) A double-blind, randomized, placebo-controlled, single dose study was performed to determine the safety, tolerability and pharmacokinetics of 1, 10 and 100 mg orally administered estetrol in healthy postmenopausal volunteers (menopause defined as ≧12 months amenorrhea or six months amenorrhea with serum FSH levels ≧40 IU/L and serum E2<73 pmol/L), a Body Mass Index of 18-30 kg/m^2, non-smoking, good physical and mental health as judged by the investigator determined by medical history, physical examination, clinical laboratory, vital signs and ECG recording). In each dose group, six subjects received estetrol treatment and two subjects received placebo.
(§2) Screening took place within two weeks before investigational drug administration. During and after drug administration, subjects were admitted to a Clinical Pharmacology Unit for approximately 60 hours for intensive safety monitoring. Safety and tolerability were documented by monitoring (serious) adverse events, physical examinations including vital signs, and safety laboratory assessments (hematology, biochemistry, urinalysis). Frequent blood sampling (within the range of 15 minutes to 168 hours) was performed to assess estetrol plasma concentration and pharmacokinetic variables. For this, plasma samples were subjected to liquid-liquid extraction (hexane and diethyl ether) and further subjected to HPLC analysis (Perkin Elmer 200) and tandem mass spectrometry using a PE Sciex 4000 tandem mass spectrometer and APCI interface. With each sample batch, a calibration curve with 6 calibrators was recorded. The calibration curve was calculated using linear regression (correlation coefficient >0.98), which permitted quantification of estetrol plasma concentrations.

Series [4] in a line: single oral dose pharmacokinetics study of estetrol in healthy postmenopausal volunteers. Type of series: in vivo, human. The settings on record: for Cmax: po. On the procedure: as §1
Estetrol and placebo medication was formulated as a solution (propylene glycol/water mixture) and was delivered in separate bottles for each volunteer. Bottles contained 1 mg or 10 mg estetrol per 50 ml for subjects of the groups that received 1 mg or 10 mg estetrol and 100 mg per 200 ml for the group receiving 100 mg estetrol.
as §2

Series [5] concerns angina pectoris induced by coronary artery disease. The series is described as follows: clinical trial of on demand oral estetrol versus placebo in angina pectoris. Type of series: in vivo, human. The settings on record: 100 mg per dose. The method, then:
A clinical trial is conducted with single dose, on demand oral estetrol administration of 100 mg in subjects suffering from documented angina pectoris and is compared to placebo treatment. Additionally, patients in this trial are offered to use their standard on demand medication, e.g. nitroglycerin. Hundred patients, males and females, with a diagnosis of angina pectoris induced by coronary artery disease, substantiated by positive dynamic tests of myocardial ischaemia, participate in the clinical trial. Patients are selected according to the following inclusion (I) and exclusion (E) criteria: Patients with clear angina pectoris diagnosis (I), patients having chest pain attacks more than two times a week (I). Patients with active myocardial infarct or other cardiopulmonary heart disease, such as severe psychoneurosis, menopausal syndrome and chest pain caused by cervical spondylopathy (E), patients of angina pectoris combined with hypertension (bloodpressure >24/14.87 Kpa) (E), patients of severe cardiopulmonary function deficiency, severe arrhythmia, abnormal liver and renal function and/or hematopoietic disease (E), breast-feeding women and patients with a known history of allergic disease (E), patients younger than 18 or older than 70 (E).
The diagnostic standard for angina pectoris severity is used to describe baseline patient characteristics and subsequently to monitor treatment efficacy (see below).
Low-grade: Typical attack of angina pectoris, which usually lasts a few minutes and occurs 1-3 times a day. The attack is not severe, but the patient sometimes needs to take nitroglycerin. Mid-grade: Angina attack occurs more than 3 times everyday and lasts several to ten minutes every time. The pain is more severe than that of the low-grade attack and the patient generally needs sublingual nitroglycerin. High-grade: Angina attack occurs frequently daily. It lasts longer and more seriously. Routine life is affected. The patient needs to use nitroglycerin frequently.
The diagnostic standard for angina pectoris types is used to describe baseline characteristics and classify patient types.
Exertionally-induced angina pectoris: The transient attack of chest pain is caused typically by exertion or other conditions that increase myocardial oxygen demands. The pain normally disappears rapidly after rest or administration of sublingual nitroglycerin. Spontaneous angina pectoris: The attack of chest pain is not obviously related to increase of myocardial oxygen consumption. Compared with tiredness-induced angina pectoris, the pain lasts longer and is more severe. It can not be easily alleviated by nitroglycerin. Mixed Angina Pectoris: Spontaneous angina pectoris can come with tiredness-induced angina pectoris and is classified as mixed angina pectoris. […]

As to `C[C@]12CC[C@@H]3c4ccc(O)cc4CC[C@H]3[C@@H]1CC[C@@H]2O` [17β-estradiol], the “effect on coronary and cerebral arteries” value in series [1] was “relaxant effect”.

As to `C[C@]12CC[C@@H]3c4ccc(O)cc4CC[C@H]3[C@@H]1[C@@H](O)[C@@H](O)[C@@H]2O` [estetrol, 1,3,5 (10)-estratrien-3,15α,16α,17β-tetrol], the “improvement in satisfaction with overall sex life versus placebo” value in series [2] (SFQ at 4 weeks) is “more subjects report improvement”. For the same compound, the “percentage of subjects with improvement in the ability to develop and maintain erections versus placebo” value in series [2] (SFQ at 4 weeks versus baseline) is listed as “higher percentage of subjects that show improvement”. Further, the tolerability entry in series [2] (on demand oral, 4 weeks) is given as “well tolerated”. Further, the “headache and relief of migraine symptoms versus baseline analgesic and/or triptan-type medication” value with migraine (100 mg estetrol tablets) is “less headache and more quicker relief of migraine symptoms”. The “side effects directly related to investigational drug” value in the series with migraine (100 mg estetrol tablets, on demand, 2 months) was “No apparent side effects”. In addition, the “tablet use by participants, estetrol versus placebo” value in the series on migraine (free choice between blinded bottles, 2 months) is given as “significantly more estetrol containing tablets than placebo tablets”. Moreover, the “changes in vital signs, haematology, biochemistry or urinalysis” value in series [3] (1, 10 and 100 mg estetrol) was “no clinically significant changes”. For the same compound, the “severe or serious adverse events” value in series [3] (1, 10 and 100 mg estetrol) is “No severe or serious adverse events”. Further, the “safety and tolerability profile” value in series [3] (single oral doses of 1, 10 and 100 mg) was “safe and well tolerated”. The “time of maximum plasma concentrations post-dosing” value in series [4] (1 mg oral dose group) turned out to be 15 min. Also, the Cmax in series [4] (female, human, plasma, 1 mg, 1 mg oral estetrol, read-out: Cmax (median)) was 0.52 ng/mL; in series [4] (female, human, plasma, 1 mg, 1 mg oral estetrol, read-out: Cmax (range)) it was 0.39 to 1.2 ng/mL; in series [4] (female, human, plasma, 10 mg, 10 mg oral estetrol, read-out: Cmax (median)), 9.4 ng/mL; in series [4] (female, human, plasma, 10 mg, 10 mg oral estetrol, read-out: Cmax (range)), 5.4 to 11.6 ng/mL; in series [4] (female, human, plasma, 100 mg, 100 mg oral estetrol, read-out: Cmax (median)), 148 ng/mL; in series [4] (female, human, plasma, 100 mg, 100 mg oral estetrol, read-out: Cmax (range)), 119 to 213 ng/mL. Moreover, the half-life in series [4] (female, human, plasma, single oral dose, final elimination phase, read-out: terminal half-life (converted)) was roughly 1680 min. In addition, the gastro-intestinal absorption result in series [4] (oral dosing 1, 10 and 100 mg) is “good gastro-intestinal absorption”. For the same compound, the “inter-subject variability of pharmacokinetic profile” value in series [4] (oral dosing 1, 10 and 100 mg) was “low inter-subject variability”. Moreover, the speed of absorption result in series [4] (single oral dose) was “extremely fast”. Moreover, the “start of slow phase of final elimination post-dosing” value in series [4] (single oral dose) is “approximately 24 hours”. Also, the “patient-reported effect on angina pectoris symptoms” value in series [5] (on demand oral) was “relief of angina pectoris symptoms”. The “side effects versus placebo” value in series [5] (on demand oral, 4 weeks) is “no obvious side effects”. In series [5] (on demand oral, 4 weeks), the “use of nitroglycerin versus placebo arm” value is on record as “significantly lower than in the placebo arm”. The “improvement of exercise tolerance, ability to extend the duration of walking and quality of life” value in series [5] (versus placebo) was “statistically more improvement”.
